Test results as given in patent US12208088B2 (Genentech, Inc., priority 2018, dated 2025).

Target: HPK1 (Homo sapiens (Human), UniProt Q92918)
Experiment: HPK1 Lantha binding assay ("Lanth")
Conditions: binding assays; Morrison Ki fit
Method in brief: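 Ki values are from Morrison-equation fitting of 665/615 nm TR-FRET signals, taking enzyme level, tracer level and tracer Kd into account. The assay mix held HPK1 (2 nM), Eu-anti-GST antibody (2 nM) and Tracer222 (15 nM). Incubations were two 1 h steps at 23 °C, on 5-fold serial compound dilutions.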

Sequence of HPK1 (Q92918 1-346 limits assumed): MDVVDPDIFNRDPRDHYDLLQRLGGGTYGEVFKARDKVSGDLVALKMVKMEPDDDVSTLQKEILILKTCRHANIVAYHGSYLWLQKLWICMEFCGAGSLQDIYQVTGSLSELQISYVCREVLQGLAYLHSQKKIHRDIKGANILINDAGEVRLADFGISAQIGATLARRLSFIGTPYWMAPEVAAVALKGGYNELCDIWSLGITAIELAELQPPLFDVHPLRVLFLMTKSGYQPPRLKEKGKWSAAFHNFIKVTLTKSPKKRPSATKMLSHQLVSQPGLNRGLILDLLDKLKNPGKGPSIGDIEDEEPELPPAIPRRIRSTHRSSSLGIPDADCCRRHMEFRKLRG

Work on `O=C1CNCCN1c1cccc(-c2cnc3c(c2)C2(CC2)CN3)c1` [Compound 42, 1-(3-(1′,2′-Dihydrospiro[cyclopropane-1,3′-pyrrolo[2,3-b]pyridin]-5′-yl)phenyl)piperazin-2-one] yielded a Ki of 100 nM.

Work on `OCc1cccnc1-c1cccc(-c2cnc3c(c2)C2(CC2)CN3)c1` [Compound 43, (2-(3-(1′,2′-Dihydrospiro[cyclopropane-1,3′-pyrrolo[2,3-b]pyridin]-5′-yl)phenyl)pyridin-3-yl)methanol] yielded a Ki of 81.5 nM.

`CN(CCO)C(=O)c1c(N)ccc(-c2cnc3c(c2Cl)C2(CCC2)CN3)c1F` [Compound 44, 6-Amino-3-(4′-chloro-1′,2′-dihydrospiro[cyclobutane-1,3′-pyrrolo[2,3-b]pyridin]-5′-yl)-2-fluoro-N-(2-hydroxyethyl)-N-methylbenzamide] gave a Ki of 4.4 nM.

Molecule `CN(CCO)C(=O)c1cccc(-c2cnc3c(c2Cl)C2(CC2)CN3)c1F` [Compound 45, 3-(4′-Chloro-1′,2′-dihydrospiro[cyclopropane-1,3′-pyrrolo[2,3-b]pyridin]-5′-yl)-2-fluoro-N-(2-hydroxyethyl)-N-methylbenzamide] has a Ki of 43.7 nM.

`CCN(CCO)C(=O)c1cccc(-c2cnc3c(c2Cl)C2(CC2)CN3)c1F` [Compound 46, 3-(4′-Chloro-1′,2′-dihydrospiro[cyclopropane-1,3′-pyrrolo[2,3-b]pyridin]-5′-yl)-N-ethyl-2-fluoro-N-(2-hydroxyethyl)benzamide] gave a Ki of 38.6 nM.

`O=C(c1cccc(-c2cnc3c(c2Cl)C2(CC2)CN3)c1F)N(CCO)CCO` [Compound 47, 3-(4′-Chloro-1′,2′-dihydrospiro[cyclopropane-1,3′-pyrrolo[2,3-b]pyridin]-5′-yl)-2-fluoro-N,N-bis(2-hydroxyethyl)benzamide] showed a Ki of 88.5 nM.

Molecule `O=C(c1cccc(-c2cnc3c(c2Cl)C2(CC2)CN3)c1F)N1CCNCC1` [Compound 48, (3-(4′-Chloro-1′,2′-dihydrospiro[cyclopropane-1,3′-pyrrolo[2,3-b]pyridin]-5′-yl)-2-fluorophenyl)(piperazin-1-yl)methanone] has a Ki of 151 nM.

`O=C(c1cccc(-c2cnc3c(c2Cl)C2(CC2)CN3)c1F)N1CC(O)C1` [Compound 49] showed a Ki of 55.3 nM.

`CC(=O)NC1CN(C(=O)c2cccc(-c3cnc4c(c3Cl)C3(CC3)CN4)c2F)C1` [Compound 50, N-(1-(3-(4′-Chloro-1′,2′-dihydrospiro[cyclopropane-1,3′-pyrrolo[2,3-b]pyridin]-5′-yl)-2-fluorobenzoyl)azetidin-3-yl)acetamide] showed a Ki of 139 nM.

Molecule `NC1CN(C(=O)c2cccc(-c3cnc4c(c3Cl)C3(CC3)CN4)c2F)C1` [Compound 51, (3-Aminoazetidin-1-yl)(3-(4′-chloro-1′,2′-dihydrospiro[cyclopropane-1,3′-pyrrolo[2,3-b]pyridin]-5′-yl)-2-fluorophenyl)methanone] has a Ki of 68.2 nM.

`COc1c(-c2ccc(N)c(C(=O)N(C)CCO)c2F)cnc2c1C1(CCC1)CN2` [Compound 52, 6-Amino-2-fluoro-N-(2-hydroxyethyl)-3-(4′-methoxy-1′,2′-dihydrospiro[cyclobutane-1,3′-pyrrolo[2,3-b]pyridin]-5′-yl)-N-methylbenzamide] gave a Ki of 19 nM.

With `Cc1c(-c2ccc(N)c(C(=O)N(C)C)c2F)cnc2c1C1(CCC1)CN2` [Compound 53, 6-Amino-2-fluoro-N,N-dimethyl-3-(4′-methyl-1′,2′-dihydrospiro[cyclobutane-1,3′-pyrrolo[2,3-b]pyridin]-5′-yl)benzamide] the Ki was 28.9 nM.

With `CC(=O)Nc1cc(C#N)cc2c(-c3cnc4c(c3)C3(CC3)CN4)cn(C)c12` [Compound 54, N-(5-Cyano-3-(1′,2′-dihydrospiro[cyclopropane-1,3′-pyrrolo[2,3-b]pyridin]-5′-yl)-1-methyl-1H-indol-7-yl)acetamide] the Ki was 64.4 nM.

Work on `O=C1NCCN1c1cccc(-c2cnc3c(c2Cl)C2(CC2)CN3)c1` [Compound 55, 1-(3-(4′-Chloro-1′,2′-dihydrospiro[cyclopropane-1,3′-pyrrolo[2,3-b]pyridin]-5′-yl)phenyl)imidazolidin-2-one] yielded a Ki of 84.7 nM.

`N#Cc1cc2c(-c3cnc4c(c3)C3(CC3)CN4)c[nH]c2cn1` [Compound 56, 3-(1′,2′-Dihydrospiro[cyclopropane-1,3′-pyrrolo[2,3-b]pyridin]-5′-yl)-1H-pyrrolo[2,3-c]pyridine-5-carbonitrile] gave a Ki of 35.3 nM.

Molecule `Cn1cccc(-c2cccc(-c3cnc4c(c3Cl)C3(CC3)CN4)c2)c1=O` [Compound 57, 3-(3-(4′-Chloro-1′,2′-dihydrospiro[cyclopropane-1,3′-pyrrolo[2,3-b]pyridin]-5′-yl)phenyl)-1-methylpyridin-2(1H)-one] has a Ki of 9.06 nM.

In the case of `O=C1NCCCC1c1cccc(-c2cnc3c(c2Cl)C2(CC2)CN3)c1` (stereo not drawn) [Compound 58, 3-(3-(4′-Chloro-1′,2′-dihydrospiro[cyclopropane-1,3′-pyrrolo[2,3-b]pyridin]-5′-yl)phenyl)piperidin-2-one], the Ki is reported as 43.7 nM.

With `O=C1NCCCN1c1cccc(-c2cnc3c(c2Cl)C2(CC2)CN3)c1` [Compound 59, 1-(3-(4′-Chloro-1′,2′-dihydrospiro[cyclopropane-1,3′-pyrrolo[2,3-b]pyridin]-5′-yl)phenyl)tetrahydropyrimidin-2(1H)-one] the Ki was 14.2 nM.

`O=C1CCCCN1c1cccc(-c2cnc3c(c2Cl)C2(CC2)CN3)c1` [Compound 60, 1-(3-(4′-Chloro-1′,2′-dihydrospiro[cyclopropane-1,3′-pyrrolo[2,3-b]pyridin]-5′-yl)phenyl)piperidin-2-one] was tested, and the Ki was 16 nM.

With `Nc1cc(-c2cnc3c(c2Cl)C2(CCC(O)C2)CN3)cc(-c2ncccc2CO)c1` (stereo not drawn) [Compound 61, 5′-(3-Amino-5-(3-(hydroxymethyl)pyridin-2-yl)phenyl)-4′-chloro-1′,2′-dihydrospiro[cyclopentane-1,3′-pyrrolo[2,3-b]pyridin]-3-ol] the Ki was 12.8 nM.

Work on `NS(=O)(=O)c1cccc(-c2cnc3c(c2)C2(CC2)CN3)c1` [Compound 62, 3-(1′,2′-Dihydrospiro[cyclopropane-1,3′-pyrrolo[2,3-b]pyridin]-5′-yl)benzenesulfonamide] yielded a Ki of 66.4 nM.

Molecule `CS(=O)(=O)c1cccc(-c2cnc3c(c2)C2(CC2)CN3)c1` [Compound 63, 5′-(3-(Methylsulfonyl)phenyl)-1′,2′-dihydrospiro[cyclopropane-1,3′-pyrrolo[2,3-b]pyridine]] has a Ki of 84.9 nM.

`CC(=O)Nc1ccc(-c2cnc3c(c2)C2(CC2)CN3)cc1C(F)(F)F` [Compound 64, N-(4-(1′,2′-Dihydrospiro[cyclopropane-1,3′-pyrrolo[2,3-b]pyridin]-5′-yl)-2-(trifluoromethyl)phenyl)acetamide] showed a Ki of 89.1 nM.

For `NS(=O)(=O)c1ccc(-c2cnc3c(c2)C2(CC2)CN3)cc1` [Compound 65, 4-(1′,2′-Dihydrospiro[cyclopropane-1,3′-pyrrolo[2,3-b]pyridin]-5′-yl)benzenesulfonamide], the Ki was 135 nM.

Molecule `CN(C)C(=O)c1c(N)ccc(-c2cnc3c(c2)C2(CCC2)CN3)c1F` [Compound 66, 6-Amino-3-(1′,2′-dihydrospiro[cyclobutane-1,3′-pyrrolo[2,3-b]pyridin]-5′-yl)-2-fluoro-N,N-dimethylbenzamide] has a Ki of 53.1 nM.

Work on `O=C1NCCCN1c1cccc(-c2cnc3c(c2)C2(CC2)CN3)c1` [Compound 67, 1-(3-(1′,2′-Dihydrospiro[cyclopropane-1,3′-pyrrolo[2,3-b]pyridin]-5′-yl)phenyl)tetrahydropyrimidin-2(1H)-one] yielded a Ki of 27.5 nM.

Work on `Cn1cccc(-c2cccc(-c3cnc4c(c3Cl)[C@]3(CC[C@H](O)C3)CN4)c2)c1=O` [Compound 68c, 3-(3-((1R,3S)-4′-chloro-3-hydroxy-1′,2′-dihydrospiro[cyclopentane-1,3′-pyrrolo[2,3-b]pyridin]-5′-yl)phenyl)-1-methylpyridin-2(1H)-one] yielded a Ki of 5.4 nM.

Molecule `C[C@@H]1CNC(=O)N1c1cccc(-c2cnc3c(c2Cl)C2(CC2)CN3)c1` [Compound 69a, (R)-1-(3-(4′-Chloro-1′,2′-dihydrospiro[cyclopropane-1,3′-pyrrolo[2,3-b]pyridin]-5′-yl)phenyl)-5-methylimidazolidin-2-one] has a Ki of 35.6 nM.

`C[C@H]1CNC(=O)N1c1cccc(-c2cnc3c(c2Cl)C2(CC2)CN3)c1` [Compound 69b, (S)-1-(3-(4′-Chloro-1′,2′-dihydrospiro[cyclopropane-1,3′-pyrrolo[2,3-b]pyridin]-5′-yl)phenyl)-5-methylimidazolidin-2-one] was tested, and the Ki was 16 nM.

`O=C1NCCCN1c1cccc(-c2cnc3c(c2)C2(CC2)CN3)n1` [Compound 70, 1-(6-(1′,2′-Dihydrospiro[cyclopropane-1,3′-pyrrolo[2,3-b]pyridin]-5′-yl)pyridin-2-yl)tetrahydropyrimidin-2(1H)-one] showed a Ki of 102 nM.

Work on `O=C1NCCN1c1cccc(-c2cnc3c(c2)C2(CC2)CN3)n1` [Compound 71, 1-(6-(1′,2′-Dihydrospiro[cyclopropane-1,3′-pyrrolo[2,3-b]pyridin]-5′-yl)pyridin-2-yl)imidazolidin-2-one] yielded a Ki of 115 nM.

In the case of `c1cc(-c2cnc3c(c2)C2(CC2)CN3)cc(-c2nnn3c2CNCC3)c1` [Compound 72, 5′-(3-(4,5,6,7-Tetrahydro-[1,2,3]triazolo[1,5-a]pyrazin-3-yl)phenyl)-1′,2′-dihydrospiro[cyclopropane-1,3′-pyrrolo[2,3-b]pyridine]], the Ki is reported as 279 nM.

For `O=C1NCCC1c1cccc(-c2cnc3c(c2Cl)C2(CC2)CN3)c1` (stereo not drawn) [Compound 73], the Ki was 26.1 nM.

Molecule `N#Cc1cc2c(-c3cnc4c(c3)C3(CC3)CN4)c[nH]c2cc1F` [Compound 74] has a Ki of 31 nM.

In the case of `CN(C)C(=O)c1c(N)ccc(-c2cnc3c(c2Cl)C2(CCC(N(C)CC(N)=O)C2)CN3)c1F` (stereo not drawn) [Compound 75, 6-Amino-3-(3-((2-amino-2-oxoethyl)(methyl)amino)-4′-chloro-1′,2′-dihydrospiro[cyclopentane-1,3′-pyrrolo[2,3-b]pyridin]-5′-yl)-2-fluoro-N,N-dimethylbenzamide], the Ki is reported as 251 nM.

For `CN(C)C(=O)c1c(N)ccc(-c2cnc3c(c2Cl)C2(CCC(NCC(N)=O)C2)CN3)c1F` (stereo not drawn) [Compound 76, 6-Amino-3-(3-((2-amino-2-oxoethyl)amino)-4′-chloro-1′,2′-dihydrospiro[cyclopentane-1,3′-pyrrolo[2,3-b]pyridin]-5′-yl)-2-fluoro-N,N-dimethylbenzamide], the Ki was 490 nM.
